Assay [1] deals with MIA-PaCa-2 pancreatic cancer cell line (KRAS G12C). Briefly: Cell proliferation assay (CellTiter 96 Aqueous One). Particulars: Homo sapiens; for IC50: MIA PaCa-2, MIA PaCa-2; for inhibition at 10 µM: MIA PaCa-2, read-out: % inh cell proliferation (10 μM) in MIA PaCa-2. It is filed as cell-based. The method, then: Cell lines: Human tumor-derived cell lines were purchased from American Type Culture Collection. Human tumor-derived pancreatic cancer cell line MIA-PACA2 (having a KRAS G12C mutation) and Panc-1 (having a KRAS G12D mutation), and Human non-small cell lung cancer (NSCLC) cell line A549 (having a KRAS G12S mutation) were grown in complete DMEM-High Glucose. Human colon cancer cell line SW-620 (having a KRAS G12V mutation) was grown in RPMI. All cell lines were supplemented with penicillin (100 U/mL), streptomycin (100 μg/mL), and 10% heat-inactivated FBS at 37° C. in a humidified incubator with 5% CO2.
Method: Cells were plated at 2000 to 5000 cells/well density in 96-wells plate and cultured overnight. Small molecules to be tested were added to the cells in the final concentration of 10 μM in the presence of 0.3% DMSO and 10% FBS, and incubated for 2-4 days at 37° C. in a humidified incubator with 5% CO2. For IC50 value determination, serial dilutions of compounds were added to cells under the same conditions.
Assay: At the end of the incubation period, cell viability was measured using the CellTiter 96® Aqueous One Solution Cell Proliferation Assay according to manufacturer specifications (Promega, Madison, Wis.). The percentage of small molecules inhibition of cellular proliferation was calculated from raw data.

Assay [2] concerns the target T1, KRas Q61H mutant (Homo sapiens, UniProt P01116, Q61H).
T1 construct: made in house
Briefly: Ras GTP binding domain inhibition assay (labeled-GTP competition, cell-free). An excerpt:
(§1) This is a competitive binding assay. It involves the immobilization of a protein on solid phase, interaction with a small molecule drug candidate, and then competitive binding with a labeled native GTP or GDP ligand.
(§2) In theory, the assay is suitable for use with any GTP or GDP binding protein.
(§3) The following method was developed as specific assay for the following proteins: KRas wild type, KRas Q61H mutant, KRas G12C mutant, KRas G12D mutant, Rac-1, and Rho-A.
(§4) The small GTPases proteins: KRas wild type. KRas Q61H mutant, KRas G12C mutant, KRas G12D mutants, Rac-1, and Rho-A were expressed as His-tagged proteins. In addition, the Guanosine nucleotide Exchange Factor (GEF) Sos protein (residues 556-1049) was expressed as a His-tagged protein. In cells, the guanine nucleotide exchange factor Sos protein promotes activation of Ras proteins by stimulating an exchange of GDP for GTP. The inclusion of Sos to the Ras GTP binding domain inhibition assay may be considered as an alternative representation of physiological cellular conditions for evaluating the inhibitory activity of some of the tested small molecules.
(§5) For the assay, all purified small GTPases proteins were diluted in Buffer-I or Buffer-II to a final concentration of 10-30 μg/mL. 200 μL of each diluted protein was added to a nickel-coated 96-well plate and incubated overnight at 4° C. Then the protein solution was discarded and 200 μL of Buffer-I or Buffer-II was added to each well in the presence of 1% DMSO. Compounds to be tested were added to the protein-coated wells at final concentration of 20 μM, and incubated for 3 hours at room temperature with and without 10-30 μg/mL of Sos added to the final hour of the incubation. When performing IC50 measurements a serial dilution of all tested concentrations was added. Then Cy3-GTP or Cy5-GTP was added to each well to a final concentration of 100 nM. The labeled GTP was incubated for 45 minutes at room temperature. Following GTP incubation, wells were washed 3× in Buffer-I or Buffer-II and 200 μL of Buffer-I or Buffer-II was added to each well. Following washes, the amount of bound labeled-GTP was measured using a SpectraMax M3 (Molecular Devices).

Assay [3] deals with T2, KRas G12D mutant (Homo sapiens, UniProt P01116, G12D).
T2 construct: made in house
Described as above.
Excerpt: as §1, §2, §3, §4, §5

Assay [4] addresses T3, KRas G12C mutant (Homo sapiens, UniProt P01116, G12C).
T3 construct: made in house
Described as above.
Excerpt: as §1, §2, §3, §4, §5

The mark [5] stands for this setting: with SOS, read-out: KRas Q61H mutant + SOS: % inh.
The mark [6] stands for this setting: without SOS, read-out: KRas Q61H mutant: % inh.
Where [7] appears, read: with SOS, read-out: KRas G12D mutant + SOS: % inh.
The mark [8] stands for this setting: without SOS, read-out: KRas G12D mutant: % inh.
Where [9] appears, read: with SOS, read-out: KRas G12C mutant + SOS: % inh.
Setting [10] is: without SOS, read-out: KRas G12C mutant: % inh.

The values that follow come from US20230227466A1, “SUBSTITUTED THIENOPYRIMIDINES THAT INTERACT WITH THE RAS SUPERFAMILY FOR THE TREATMENT OF CANCERS, INFLAMMATORY DISEASES, RASOPATHIES, AND FIBROTIC DISEASE” (SHY Therapeutics, LLC, priority 2020, published 2023).

Like-named read-outs stand apart in the source and are kept apart here.

In general, IC50 refers to the concentration at which inhibition is half-maximal. For the compound `CO[C@H]1CC[C@@H](Nc2nc(C(=O)N3CCOCC3)nc3sccc23)C1` (racemic) [Compound 12, Rac-(4-(((1R,3S)-3-methoxycyclopentyl)amino)thieno[2,3-d]pyrimidin-2-yl)(morpholino)methanone], the half-inhibitory concentration (IC50) in assay [1] and in assay [2] (with SOS) was above 10 µM each time. Further, the inhibition at 10 µM in assay [1] was 1 to 25%. Besides, the inhibition at 20 µM in assay [2] (setting [5]) is 0%; in assay [2] (setting [6]) it was 1 to 25%; in assay [3] (setting [7]), 0%; in assay [3] (setting [8]), 1 to 25%; in assay [4] (setting [9]), 1 to 25%; in assay [4] (setting [10]) it was 1 to 25%.

In the case of `CO[C@H]1CC[C@@H](Nc2nc(C(=O)NC(C)C)nc3sccc23)C1` (racemic) [Compound 13, Rac-N-isopropyl-4-(((1R,3S)-3-methoxycyclopentyl)amino)thieno[2,3-d]pyrimidine-2-carboxamide], the 50% inhibitory concentration (IC50) in assay [1] and in assay [2] (with SOS) was above 10 µM in each case. Moreover, in assay [1], the inhibition at 10 µM was determined as 0%. The inhibition at 20 µM in assay [2] (setting [5]) was 0%; in assay [2] (setting [6]) it was 0%; in assay [3] (setting [7]), 0%; in assay [3] (setting [8]), 1 to 25%; in assay [4] (setting [9]) it was 0%; in assay [4] (setting [10]), 0%.

With `COCCNC(=O)c1nc(N[C@@H]2CC[C@H](OC)C2)c2ccsc2n1` (racemic) [Compound 14, rac-4-(((1R,3S)-3-Methoxycyclopentyl)amino)-N-(2-methoxyethyl)thieno[2,3-d]pyrimidine-2-carboxamide], the IC50 in assay [1] and in assay [2] (with SOS) was above 10 µM throughout. Also, in assay [1], the inhibition at 10 µM was 0%. Also, the inhibition at 20 µM in assay [2] (setting [5]) was 1 to 25%; in assay [2] (setting [6]), 0%; in assay [3] (setting [7]), 1 to 25%; in assay [3] (setting [8]) it was 1 to 25%; in assay [4] (setting [9]), 0%; in assay [4] (setting [10]), 0%.

With `CO[C@H]1CC[C@@H](Nc2nc(C(=O)Nc3ccccc3)nc3sccc23)C1` (racemic) [Compound 15, rac-4-(((1R,3S)-3-Methoxycyclopentyl)amino)-N-phenylthieno[2,3-d]pyrimidine-2-carboxamide], the IC50 in assay [1] and in assay [2] (with SOS) was above 10 µM throughout. Besides, the inhibition at 10 µM in assay [1] was in the range of 1 to 25%. Moreover, the inhibition at 20 µM in assay [2] (setting [5]) is 0%; in assay [2] (setting [6]), 1 to 25%; in assay [3] (setting [7]), 0%; in assay [3] (setting [8]) it was 0%; in assay [4] (setting [9]), 0%; in assay [4] (setting [10]) it was 1 to 25%.

For `CO[C@H]1CC[C@@H](Nc2nc(C(=O)Nc3ccccn3)nc3sccc23)C1` (racemic) [Compound 16, rac-4-(((1R,3S)-3-Methoxycyclopentyl)amino)-N-(pyridin-2-yl)thieno[2,3-d]pyrimidine-2-carboxamide], the half-maximal inhibitory concentration (IC50) in assay [1] and in assay [2] (with SOS) was above 10 µM throughout. In assay [1], the inhibition at 10 µM was 1 to 25%. For the same compound, the inhibition at 20 µM in assay [2] (setting [5]) is 0%; in assay [2] (setting [6]) it was 1 to 25%; in assay [3] (setting [7]), 1 to 25%; in assay [3] (setting [8]), 1 to 25%; in assay [4] (setting [9]) it was 1 to 25%; in assay [4] (setting [10]), 1 to 25%.

For `CO[C@H]1CC[C@@H](Nc2nc(C(N)=O)nc3sc(-c4ccn(C(C)C)n4)cc23)C1` (racemic) [Compound 17, Rac-6-(1-isopropyl-1H-pyrazol-3-yl)-4-(((1R,3S)-3-methoxycyclopentyl)amino)thieno[2,3-d]pyrimidine-2-carboxamide], the IC50 in assay [1] and in assay [2] (with SOS) was above 10 µM throughout. In addition, the inhibition at 10 µM in assay [1] was in the range of 1 to 25%. In addition, the inhibition at 20 µM in assay [2] (setting [5]) was 0%; in assay [2] (setting [6]), 1 to 25%; in assay [3] (setting [7]), 0%; in assay [3] (setting [8]), 0%; in assay [4] (setting [9]) it was 0%; in assay [4] (setting [10]), 0%.

As for `CO[C@H]1CC[C@@H](Nc2nc(C(=O)N3CCCC3)nc3sccc23)C1` (racemic) [Compound 25, Rac-(4-(((1R,3S)-3-Methoxycyclopentyl)amino)thieno[2,3-d]pyrimidin-2-yl)(pyrrolidin-1-yl)methanone], the half-inhibitory concentration (IC50) in assay [1] is above 10 µM. Further, the inhibition at 10 µM in assay [1] is 1 to 25%. In addition, the inhibition at 20 µM in assay [2] (setting [5]), in assay [2] (setting [6]), in assay [3] (setting [7]), in assay [3] (setting [8]), in assay [4] (setting [9]) and in assay [4] (setting [10]) was 0% throughout.

`Cc1c(-c2ccn(C(C)C)n2)sc2nc(-c3nccn3C)nc(NC3CCOC3)c12` (racemic) [Compound 37, rac-6-(1-Isopropyl-1H-pyrazol-3-yl)-5-methyl-2-(1-methyl-1H-imidazol-2-yl)-N-(tetrahydrofuran-3-yl)thieno[2,3-d]pyrimidin-4-amine] gave an IC50 in assay [1] of 5 to 10 µM. The inhibition at 10 µM in assay [1] lay within 51 to 75%. The inhibition at 20 µM in assay [2] (setting [5]), in assay [2] (setting [6]), in assay [3] (setting [7]), in assay [3] (setting [8]), in assay [4] (setting [9]) and in assay [4] (setting [10]) was 76 to 100% throughout.

`COCC1COCCN1c1nc(-c2nccn2C)nc2sc(-c3ccn(C(C)C)n3)c(C)c12` (racemic) [Compound 41, rac-4-(6-(1-Isopropyl-1H-pyrazol-3-yl)-5-methyl-2-(1-methyl-1H-imidazol-2-yl)thieno[2,3-d]pyrimidin-4-yl)-3-(methoxymethyl)morpholine] had an IC50 in assay [1] of 5 to 10 µM. Besides, the inhibition at 10 µM in assay [1] was 51 to 75%. Moreover, the inhibition at 20 µM was 26 to 50% in assay [2] (setting [5]); 51 to 75% in assay [2] (setting [6]); 26 to 50% in assay [3] (setting [7]); 0% in assay [3] (setting [8]); 51 to 75% in assay [4] (setting [9]); 51 to 75% in assay [4] (setting [10]).

As to `COCC1CN(c2nc(-c3nccn3C)nc3sc(-c4ccn(C(C)C)n4)c(C)c23)CCO1` (racemic) [Compound 45, rac-4-(6-(1-Isopropyl-1H-pyrazol-3-yl)-5-methyl-2-(1-methyl-1H-imidazol-2-yl)thieno[2,3-d]pyrimidin-4-yl)-2-(methoxymethyl)morpholine], the IC50 in assay [1] was 5 to 10 µM. In assay [1], the inhibition at 10 µM lay in the range of 26 to 50%. For the same compound, the inhibition at 20 µM lay in the range of 76 to 100% in assay [2] (setting [5]); 76 to 100% in assay [2] (setting [6]); 76 to 100% in assay [3] (setting [7]); 76 to 100% in assay [3] (setting [8]); 76 to 100% in assay [4] (setting [9]); 51 to 75% in assay [4] (setting [10]).
